Earlier results on two molecules are cited in paper PMC6344942 (SLAS discovery : advancing life sciences R & D, 2017).

Where two headings read alike, the source gives them in different places.

The series deals with Ubc9 (Homo sapiens, UniProt P63279).
Sequence of Ubc9 (P63279 whole entry): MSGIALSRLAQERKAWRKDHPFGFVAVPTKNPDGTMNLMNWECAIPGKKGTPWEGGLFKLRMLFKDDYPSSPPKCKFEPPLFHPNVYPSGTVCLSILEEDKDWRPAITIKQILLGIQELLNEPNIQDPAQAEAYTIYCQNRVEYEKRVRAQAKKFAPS

Turning to `O=c1cc(-c2ccc(O)c(O)c2O)oc2ccccc12` [Compound 2-D08, 2-D08], the concentration for half-maximal inhibition (IC50) (as a rule, the concentration needed to halve the response being measured) (prevents transfer of SUMO from Ubc9~SUMO thioester to substrate) was 6 µM. Consider `COC(=CC(=O)O)C1c2cc3ccc(-c4ccc5cc6c(c(O)c5c4O)C(=O)CC(C)(O)C6C(=CC(=O)O)OC)c(O)c3c(O)c2C(=O)CC1(C)O` (centres unmarked) [spectomycin B1], for which, for the setting “Ubc9 inhibitor”, the IC50 was 4.4 µM.
